One may read the EC50 as the concentration at which the effect is half-maximal. Broadly, the ED50 is the midpoint of the dose-response relation.

14 compounds from patent publication US4350695A, “Antihistaminic and bronchospasmolytic triazoloquinazolinones” (Roussel Uclaf, priority 1980, dated 1982) can be followed below.

Assay [1] deals with isolated guinea pig tracheas. Put plainly: Effect on isolated guinea pig tracheas (histamine-induced contraction). The format is cell-based. Particulars: for EC50: Cavia porcellus, spirally cut trachea, Krebs Henseleit solution, 37° C., histamine as agonist, read-out: EC50 (amount required to reduce the histamine-induced contraction of the guinea pig trachea by 50%). The method, then:
B Effect on isolated guinea pig tracheas
Guinea pigs were killed by a blow on the back of the neck and the tracheas were excised, cut spirally and suspended in Krebs Henseleit solution at 37° C. and aerated with 95% O2 +5% CO2. Histamine was used as the agonist.

The subject of assay [2] is histamine-induced bronchoconstriction. Put plainly: Effects on histamine-induced bronchoconstriction in anaesthetised guinea pigs. The format is in vivo, guinea pig. The following applies: for ED50: Cavia porcellus, iv, male anaesthetised guinea pigs, administered via cannulated left jugular vein immediately before histamine, read-out: ED50 (effective dose required to reduce the histamine-induced constriction in lung air volume by 50%); for antagonising the bronchoconstricting activity of histamine: anaesthetised guinea pigs, result in words. Here is the method: A. Effects on histamine-induced bronchoconstriction in anaesthetised guinea pigs
Male guinea pigs weighing 300-400 grams, after overnight starving, were anaesthetised with intraperitoneal administration of 0.7 ml/100 g of urethane. The preparation was as described by Konsett et al [Arch. exp. Path. Pharmakol. […] (1940), p. 71] with a ventilatory pump stroke volume varying between 4 to 6 ml of air (adjusted for each animal) at a stroke rate of 80 per minute to maintain a lung inflation pressure of 7.5 cm of H2 O. Blood pressure was measured via a cannula in the right carotid artery connected to a Statham blood pressure transducer and a Devices M2 recorder. The test compounds were administered via the cannulated left jugular vein and washed in with 0.1 ml of 0.9% w/w sodium chloride in distilled water. The test product was administered immediately before the histamine which was used as the agonist.
Respiratory changes were recorded via a differential transducer connected to an SE 905 transducer/converter which in turn was connected to a Devices M2 recorder. The results given in Table I show the effective dose of each of the test compounds required to reduce the histamine-induced constriction in lung air volume by 50%.

Each structure is given as a SMILES string. Converted amounts (≈) assume the structure as drawn. Structures can show the parent of a compound that is named as a salt.

Take `O=c1c2ccccc2nc2n(CCCCN3CCN(c4cccc(Cl)c4)CC3)cnn12` [Example 1 & 2, 1-{4-[4-(m-chlorophenyl)-piperazin-1-yl]-butyl}-triazolo-[1,2,4][5,1-b]-quinazolin-5(1H)-one dihydrochloride]: the EC50 in assay [1] is 0.1 µg/mL. Further, in assay [2], the ED50 is 0.02 mg/kg and the “antagonising the bronchoconstricting activity of histamine” value was “very effective”.

As for `O=c1c2cc([N+](=O)[O-])ccc2nc2n(CCCCN3CCN(c4cccc(Cl)c4)CC3)cnn12` [Example 10], the ED50 in assay [2] came to 0.1 mg/kg.

On to `O=c1c2ccccc2nc2n(CCCN3CCCCC3)cnn12` [Example 7], for which the EC50 in assay [1] came out at 15 µg/mL (≈ 48.2 µM). In addition, in assay [2], the ED50 amounted to 0.3 mg/kg.

With `O=c1c2ccccc2nc2n(CCCCN3CCC(O)(c4ccccc4)CC3)cnn12` [Example 4], in assay [1], the EC50 turned out to be 34 µg/mL (≈ 81.4 µM). The ED50 in assay [2] came to 0.3 mg/kg.

Regarding `O=c1c2ccccc2nc2n(CCCCN3CCN(C4CCCCC4)CC3)cnn12` [Example 5], in assay [1], the EC50 amounted to 10.2 µg/mL (≈ 25 µM). For the same compound, in assay [2], the ED50 was determined as 0.9 mg/kg.

`CCOC(=O)N1CCN(CCCn2cnn3c(=O)c4cc(C)ccc4nc23)CC1` [Example 34, 1-{3-[4-(ethoxycarbonyl)-piperazin-1-yl]-propyl}-7-methyl-[1,2,4]-triazolo-[5,1-b]-quinazolin-5-(1H)-one]: the ED50 in assay [2] was determined as 0.01 mg/kg.

On to `O=c1c2ccccc2nc2n(CCCN3CCN(c4cccc(Cl)c4)CC3)cnn12` [Example 6], for which the EC50 in assay [1] is 0.25 µg/mL (≈ 0.591 µM). The ED50 in assay [2] was determined as 0.03 mg/kg.

With `O=c1c2ccccc2nc2n(CCCCN3CCN(c4cccc(Cl)c4)CC3)cnn12` [1 and 2], in assay [1] (isolated guinea pig trachea, after compound washed out, result in words), the “antagonistic effect, persistence” value is “very prolonged”. The “time for which antagonistic effect could be demonstrated after the compound had been washed out” value in assay [1] (isolated guinea pig trachea, after wash-out) is “up to 30 minutes”. In addition, the “antagonist of histamine induced contractions” value in assay [1] (isolated guinea pig trachea, result in words) is given as “potent antagonist”.

As for `CCOC(=O)N1CCN(CCCCn2cnn3c(=O)c4cc(C)ccc4nc23)CC1` [Example 3, 1-{4-[4-(ethoxycarbonyl)-piperazin-1-yl]-butyl}-7-methyl[1,2,4] triazolo [5,1-b]-quinazolin-5(1H)-one dihydrochloride], in assay [2], the ED50 amounted to 0.008 mg/kg and the “antagonising the bronchoconstricting activity of histamine” value was “very effective”.

`O=c1c2ccccc2nc2n(CCCCCN3CCN(c4cccc(Cl)c4)CC3)cnn12` [Example 11]: the median effective dose (ED50) in assay [2] amounted to 0.05 mg/kg.

On to `CCOC(=O)N1CCN(CCCCn2cnn3c(=O)c4ccccc4nc23)CC1` [Example 15, 1-{4-[4-(ethoxycarbonyl)-piperazin-1-yl]-butyl}-[1,2,4]-triazolo-[5,1-b]-quinazolin-5-(1H)-one], for which the ED50 in assay [2] amounted to 0.05 mg/kg.

As to `O=c1c2ccccc2nc2n(CCCCN3CCCCC3)cnn12` [Example 24], the EC50 in assay [1] is 36 µg/mL (≈ 111 µM). Besides, the ED50 in assay [2] was determined as 0.7 mg/kg.

For the compound `O=c1c2ccccc2nc2n(CCCCCN3CCCCC3)cnn12` [Example 12], the EC50 in assay [1] worked out at 16 µg/mL (≈ 47.1 µM). The ED50 in assay [2] was found to be 1 mg/kg.

As to `O=c1c2ccccc2nc2n(CCCN3CCC(O)(c4ccccc4)CC3)cnn12` [Example 8], the ED50 in assay [2] is 2 mg/kg.
